ChEMBL document CHEMBL1201862, “PubChem BioAssay data set” (2004)
Activity calls are given as the source filed them.

What was measured:
[1] = tested on: Escherichia coli; assay: microbe, parasite or virus in culture
[2] = target: T1, High affinity choline transporter 1 (Homo sapiens, UniProt Q9GZV3); assay: human choline transporter blockers, potency – cell-based, 5-point CRC, membrane potential dye, dose response (AID 504840); type: functional
T1 sequence (Q9GZV3 whole entry): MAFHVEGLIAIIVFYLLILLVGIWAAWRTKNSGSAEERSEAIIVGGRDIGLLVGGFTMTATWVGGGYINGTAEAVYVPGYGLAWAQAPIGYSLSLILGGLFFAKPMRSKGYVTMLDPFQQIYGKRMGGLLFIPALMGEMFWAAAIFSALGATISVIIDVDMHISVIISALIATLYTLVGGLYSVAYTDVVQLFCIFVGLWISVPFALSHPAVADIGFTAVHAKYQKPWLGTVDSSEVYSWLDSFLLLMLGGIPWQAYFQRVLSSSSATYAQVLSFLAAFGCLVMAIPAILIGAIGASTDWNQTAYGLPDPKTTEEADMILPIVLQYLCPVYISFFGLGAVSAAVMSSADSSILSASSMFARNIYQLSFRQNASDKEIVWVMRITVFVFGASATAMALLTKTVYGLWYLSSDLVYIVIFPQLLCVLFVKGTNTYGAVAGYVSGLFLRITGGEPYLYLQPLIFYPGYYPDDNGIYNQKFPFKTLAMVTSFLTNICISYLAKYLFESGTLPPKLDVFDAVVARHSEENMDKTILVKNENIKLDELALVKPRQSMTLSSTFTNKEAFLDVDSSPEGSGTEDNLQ

[3] = target: T1, High affinity choline transporter 1; assay: human choline transporter blockers, potency – cell-based, 10-point CRC, membrane potential dye, dose response (AID 588401); type: functional;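 note: membrane potential dye fluorescence of choline-evoked depolarization via CHT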
[4] = viability loss in HEK293T cells – cell-based, cherry-picks, cytotoxicity control for HIV Vif inhibitor project, dose response (AID 652208); type: functional
[5] = tested on: BJ; assay: growth inhibition of engineered Ras-driven BJ cells – cell-based, alamar blue fluorescence, cherrypicked samples, dose response (AID 2631); type: functional; details: Homo sapiens;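 note: confirmatory dose-response assay in RAS-dependent BJ fibroblasts engineered with TERT, LT and ST, with cytotoxicity read by fluorescence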
[6] = microbe, parasite or virus in culture; type: functional; details: Mycobacterium tuberculosis
[7] = tested on: Streptococcus sp. 'group A'; assay: Streptococcus pyogenes SK(-)GAS viability under kanamycin – luminescence, BacTiterGlo, confirmation, counter-screen for streptokinase expression inhibitor project, dose response (AID 1900); type: functional, organism-based
[8] = tested on: Streptococcus; assay: GAS UMAA2166 growth inhibition – luminescence, BacTiterGlo, counter-screen for streptokinase expression inhibitor project, dose response (AID 1915); type: functional, organism-based;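 note: potency for reduction of bacterial viability or growth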
[9] = DRD fibroblast viability loss – cell-based, non-viral oncogenic, luminescence, dose response (AID 1934); type: functional; details: Homo sapiens
[10] = tested on: BJ; assay: BJ-TERT fibroblast viability loss – cell-based, RAS-independent, luminescence, dose response (AID 1933); type: functional; details: Homo sapiens
[11] = tested on: BJ; assay: cells; type: functional, cell-based; details: Homo sapiens
[12] = tested on: BJ; assay: BJ-TERT-LT-ST fibroblast viability loss – cell-based, RAS-independent, luminescence, dose response (AID 1935); type: functional; details: Homo sapiens;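 note: BJ fibroblasts immortalized with TERT plus LT and ST oncogenes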
[13] = target: T2, Cysteine protease ATG4B (Homo sapiens, UniProt Q9Y4P1); type: functional;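 note: Fluorescence-based dose-response confirmation assay measuring inhibition of ATG4B activity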
T2 sequence (Q9Y4P1 whole entry): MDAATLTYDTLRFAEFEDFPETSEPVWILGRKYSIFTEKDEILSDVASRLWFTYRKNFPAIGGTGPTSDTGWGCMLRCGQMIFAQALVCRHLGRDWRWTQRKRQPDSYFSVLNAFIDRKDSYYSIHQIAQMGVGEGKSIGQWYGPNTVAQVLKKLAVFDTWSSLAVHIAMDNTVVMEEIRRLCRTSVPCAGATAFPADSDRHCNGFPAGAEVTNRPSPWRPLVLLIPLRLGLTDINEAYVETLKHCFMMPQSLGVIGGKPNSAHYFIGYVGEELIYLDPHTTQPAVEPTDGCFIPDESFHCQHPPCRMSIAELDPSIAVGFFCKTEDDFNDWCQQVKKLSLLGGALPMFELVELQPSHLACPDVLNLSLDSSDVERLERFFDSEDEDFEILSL

[14] = target: Phospholipase A2 (Homo sapiens, UniProt P04054); type: functional;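 note: confirmatory dose-response counterscreen on phospholipase A2, testing hits that came from an ultra-high-throughput screen for ATG4B inhibitors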
[15] = HIV-1 Vif–A3G interaction blockers – biochemical, TR-FRET, GST-Vif 1-94, biotin-A3G peptide, dose response retest, primary screen (AID 1117319); type: functional;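 note: TR-FRET signal of purified GST-Vif binding a biotinylated A3G peptide; inhibitors lower the FRET signal by blocking Vif and A3G binding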
[16] = luciferase reporter signal suppression in cells – H4 neuroglioma cells, luminescence, dose response (AID 1990); type: functional, cell-based
[17] = Luminescence Cell-Based Dose Response HTS to Identify Inhibitors of 5'UTR Stem-Loop Driven Prion Protein mRNA Translation in H4 Neuroglioblastoma Cells. [Related pubchem assays: 1827 (Project Summary), 1813 (Primary HTS)]; type: functional
[18] = target: T3, Protein Tat (Human immunodeficiency virus type 1 group M subtype B (isolate HXB2)(HIV-1), UniProt P04608); type: functional;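 note: tat binding to TAR RNA read out by fluorescence polarization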
T3 sequence (P04608 whole entry): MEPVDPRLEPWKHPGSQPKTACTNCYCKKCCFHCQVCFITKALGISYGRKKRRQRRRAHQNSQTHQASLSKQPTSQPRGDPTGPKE

[19] = alpha-synuclein stem-loop luciferase translation blockers – H4 neuroglioma cells, luminescence, confirmation (AID 1988); type: functional, cell-based
[20] = tested on: HEK293; assay: cells; type: functional, cell-based; details: Homo sapiens
[21] = target: T4, Nuclear receptor subfamily 0 group B member 1 (Homo sapiens, UniProt P51843); assay: Luminescence-based cell-based high throughput dose response assay for inhibitors of the orphan nuclear receptor subfamily 0, group B, member 1 (DAX1; NR0B1). [Related pubchem assays (depositor defined):AID504766, AID504790]; type: functional
T4 sequence (P51843 whole entry): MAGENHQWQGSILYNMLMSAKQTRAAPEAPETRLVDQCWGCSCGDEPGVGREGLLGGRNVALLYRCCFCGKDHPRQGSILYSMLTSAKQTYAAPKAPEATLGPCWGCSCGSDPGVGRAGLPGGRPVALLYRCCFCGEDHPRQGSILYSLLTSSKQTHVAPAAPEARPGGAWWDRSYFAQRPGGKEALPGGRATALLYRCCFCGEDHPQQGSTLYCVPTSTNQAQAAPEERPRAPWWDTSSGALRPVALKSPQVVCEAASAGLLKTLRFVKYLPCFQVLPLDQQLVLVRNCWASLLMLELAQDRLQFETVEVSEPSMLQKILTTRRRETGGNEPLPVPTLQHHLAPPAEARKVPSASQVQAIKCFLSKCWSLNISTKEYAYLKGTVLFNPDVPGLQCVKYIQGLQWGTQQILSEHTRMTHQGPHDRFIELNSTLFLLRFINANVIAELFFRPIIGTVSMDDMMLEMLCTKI

Phospholipase A2, sequence (P04054 whole entry): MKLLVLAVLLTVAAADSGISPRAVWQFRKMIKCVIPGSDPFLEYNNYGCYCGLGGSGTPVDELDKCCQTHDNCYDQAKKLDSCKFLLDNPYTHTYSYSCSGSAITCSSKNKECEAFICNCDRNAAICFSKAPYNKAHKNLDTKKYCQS

## O=C(Nc1cc(S(=O)(=O)N2CCOCC2)ccc1N1CCCC1)c1ccc(Cl)cc1
[1]
  AC50: 25.2 µM (active)

## COc1ccc(-c2cc(=O)c3cc(O)ccc3o2)cc1
[2]
  IC50: 4.38 µM (active)
[3]
  IC50: 3.64 µM (active)

## Cc1ccc(NS(=O)(=O)c2cccc(C(=O)NCC(c3ccco3)N3CCCCC3)c2)cc1 (centres undefined)
[2]
  IC50: 9.8 µM (active)
[3]
  IC50: 5.39 µM (active)

## CCc1ccc2[nH]c3nc(SCC(=O)NNC(=O)c4ccc(C(C)(C)C)cc4)nnc3c2c1
[4]
  AC50: 28.6 µM (active)

## Cc1nc(N)nc(N)c1CCCc1ccc(Cl)c(Cl)c1
[5]
  EC50: > 133 µM (inactive)
[6]
  CC50: 4.07 µM (active)
[7]
  EC50: 1.03 µM (active)
[8]
  EC50: 4.01 µM (active)
[9]
  EC50: 3.05 µM (active)
[10]
  EC50: 17 µM (active)
[11]
  EC50: 1.36 µM (active)
[12]
  EC50: > 150 µM (not active)

## COc1ccc(-c2ccc(C#N)c(SCC(=O)Nc3sc4c(c3C#N)CCC4)n2)cc1OC
[13]
  IC50: 5.44 µM (active)
[14]
  IC50: 4.06 µM (active)
[15]
  IC50: > 100 µM (active)
[16]
  EC50: 13.9 µM (active)
[17]
  EC50: > 120 µM (not active)
[18]
  IC50: > 100 µM (active)
[19]
  EC50: 11.1 µM (active)

## O=C(/C=C/c1ccccc1)Nc1nc[nH]n1
[4]
  AC50: 23.6 µM (active)

## O=C(CCc1ccccc1)NC(=S)Nc1ccccc1Br
[20]
  IC50: > 67.5 µM (inactive)
[21]
  IC50: > 67.5 µM (inactive)
